Test results reported in PubChem BioAssay (NCI).
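Five compound concentrations were applied to cells in 96-well plates for 48 hours; endpoints were derived by simple linear interpolation of the resulting dose-response curve. At the GI50, growth is halved. At the TGI there is no net growth.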

Legend:
Test in all cases: NCI tumour cell line growth inhibition, 48 h
HCT-116 colon = test system: HCT-116 colon
HOP-92 NSCLC = test system: HOP-92 NSCLC
SNB-78 CNS = test system: SNB-78 CNS
SNB-75 CNS = test system: SNB-75 CNS
SK-MEL-2 melanoma = test system: SK-MEL-2 melanoma
KM12 colon = test system: KM12 colon
OVCAR-8 ovarian = test system: OVCAR-8 ovarian
UO-31 renal = test system: UO-31 renal
SF-268 CNS = test system: SF-268 CNS
HCT-15 colon = test system: HCT-15 colon
K-562 leukemia = test system: K-562 leukemia
UACC-257 melanoma = test system: UACC-257 melanoma
HOP-62 NSCLC = test system: HOP-62 NSCLC
OVCAR-4 ovarian = test system: OVCAR-4 ovarian
TK-10 renal = test system: TK-10 renal
IGROV1 ovarian = test system: IGROV1 ovarian
A498 renal = test system: A498 renal
MOLT-4 leukemia = test system: MOLT-4 leukemia
UACC-62 melanoma = test system: UACC-62 melanoma
HCC-2998 colon = test system: HCC-2998 colon
RXF-631 renal = test system: RXF-631 renal
SK-MEL-28 melanoma = test system: SK-MEL-28 melanoma
NCI-H23 lung = test system: NCI-H23 lung
NCI-H460 lung = test system: NCI-H460 lung
A549 NSCLC = test system: A549 NSCLC
U251 CNS = test system: U251 CNS
OVCAR-3 ovarian = test system: OVCAR-3 ovarian
COLO 205 colon = test system: COLO 205 colon
CCRF-CEM leukemia = test system: CCRF-CEM leukemia
KM20L2 colon = test system: KM20L2 colon
M19-MEL melanoma = test system: M19-MEL melanoma
XF 498 CNS = test system: XF 498 CNS
DMS 273 small cell lung = test system: DMS 273 small cell lung
M14 melanoma = test system: M14 melanoma
SF-295 CNS = test system: SF-295 CNS
HT29 colon = test system: HT29 colon
DMS 114 small cell lung = test system: DMS 114 small cell lung
786-0 renal = test system: 786-0 renal
SK-OV-3 ovarian = test system: SK-OV-3 ovarian
LOX IMVI melanoma = test system: LOX IMVI melanoma
CAKI-1 renal = test system: CAKI-1 renal
SF-539 CNS = test system: SF-539 CNS
EKVX NSCLC = test system: EKVX NSCLC
DLD-1 colon = test system: DLD-1 colon
HOP-18 NSCLC = test system: HOP-18 NSCLC
LXFL 529 NSCLC = test system: LXFL 529 NSCLC
SNB-19 CNS = test system: SNB-19 CNS
MALME-3M melanoma = test system: MALME-3M melanoma
HL-60(TB) leukemia = test system: HL-60(TB) leukemia
ACHN renal = test system: ACHN renal
SR leukemia = test system: SR leukemia
RXF 393 renal = test system: RXF 393 renal
RPMI-8226 leukemia = test system: RPMI-8226 leukemia
NCI-H226 lung = test system: NCI-H226 lung
SN12C renal = test system: SN12C renal
SK-MEL-5 melanoma = test system: SK-MEL-5 melanoma
SW-620 colon = test system: SW-620 colon
NCI-H522 lung = test system: NCI-H522 lung

Q: Which TGI (HCT-116 colon) does the source give for `Nc1ccc(Cl)cc1.Nc1ccc(Cl)cc1.Nc1ccc(Cl)cc1.O=C([O-])C(=O)[O-].O=C([O-])C(=O)[O-].[H+].[Ru+5]` here?
A: The TGI was over 100 µM.

Q: What about the GI50 (HOP-92 NSCLC) of the same molecule?
A: Its GI50 is over 100 µM.

Q: What about the TGI (HOP-92 NSCLC) of the same molecule?
A: The TGI was over 100 µM.

Q: And the GI50 (SNB-78 CNS)?
A: The GI50 was over 81.9 µM.

Q: What about the TGI (SNB-78 CNS) of the same molecule?
A: Its TGI is over 100 µM.

Q: And the GI50 (SNB-75 CNS)?
A: Its GI50 is over 78.6 µM.

Q: What about the TGI (SNB-75 CNS) of the same molecule?
A: The TGI was over 100 µM.

Q: And the GI50 (SK-MEL-2 melanoma)?
A: The GI50 was 0.219 µM.

Q: What about the GI50 (KM12 colon) of the same molecule?
A: The GI50 was 0.124 µM.

Q: And the TGI (KM12 colon)?
A: The TGI was 21.9 µM.

Q: What about the TGI (OVCAR-8 ovarian) of the same molecule?
A: The TGI was over 100 µM.

Q: And the GI50 (UO-31 renal)?
A: The GI50 was 0.927 µM.

Q: And the TGI (UO-31 renal)?
A: The TGI was over 26.8 µM.

Q: What about the GI50 (SF-268 CNS) of the same molecule?
A: The GI50 was over 100 µM.

Q: What about the TGI (SF-268 CNS) of the same molecule?
A: Its TGI is over 100 µM.

Q: What about the TGI (HCT-15 colon) of the same molecule?
A: Its TGI is over 100 µM.

Q: And the GI50 (K-562 leukemia)?
A: Its GI50 is under 0.0169 µM.

Q: And the TGI (K-562 leukemia)?
A: Its TGI is over 100 µM.

Q: And the TGI (UACC-257 melanoma)?
A: The TGI was over 100 µM.

Q: What about the GI50 (HOP-62 NSCLC) of the same molecule?
A: The GI50 was 0.691 µM.

Q: And the GI50 (OVCAR-4 ovarian)?
A: Its GI50 is over 100 µM.

Q: And the TGI (OVCAR-4 ovarian)?
A: The TGI was over 100 µM.

Q: And the GI50 (TK-10 renal)?
A: Its GI50 is 3.56 µM.

Q: And the TGI (TK-10 renal)?
A: The TGI was over 100 µM.

Q: And the GI50 (IGROV1 ovarian)?
A: The GI50 was over 100 µM.

Q: And the TGI (IGROV1 ovarian)?
A: The TGI was over 100 µM.

Q: And the GI50 (A498 renal)?
A: The GI50 was over 82.1 µM.

Q: What about the TGI (A498 renal) of the same molecule?
A: The TGI was over 100 µM.

Q: What about the GI50 (MOLT-4 leukemia) of the same molecule?
A: The GI50 was 1.2 µM.

Q: And the TGI (MOLT-4 leukemia)?
A: The TGI was over 100 µM.

Q: And the GI50 (UACC-62 melanoma)?
A: The GI50 was under 0.0174 µM.

Q: What about the GI50 (HCC-2998 colon) of the same molecule?
A: Its GI50 is 0.439 µM.

Q: And the TGI (RXF-631 renal)?
A: Its TGI is over 100 µM.

Q: And the TGI (SK-MEL-28 melanoma)?
A: The TGI was over 100 µM.

Q: What about the GI50 (NCI-H23 lung) of the same molecule?
A: Its GI50 is over 19.8 µM.

Q: And the TGI (NCI-H23 lung)?
A: The TGI was over 100 µM.

Q: What about the GI50 (NCI-H460 lung) of the same molecule?
A: Its GI50 is 1.05 µM.

Q: What about the TGI (NCI-H460 lung) of the same molecule?
A: Its TGI is over 100 µM.

Q: What about the GI50 (A549 NSCLC) of the same molecule?
A: The GI50 was 0.351 µM.

Q: And the TGI (A549 NSCLC)?
A: The TGI was over 100 µM.

Q: And the GI50 (U251 CNS)?
A: The GI50 was 0.938 µM.

Q: And the TGI (U251 CNS)?
A: The TGI was over 100 µM.

Q: What about the GI50 (OVCAR-3 ovarian) of the same molecule?
A: Its GI50 is 1.1 µM.

Q: And the TGI (OVCAR-3 ovarian)?
A: Its TGI is over 100 µM.

Q: What about the GI50 (COLO 205 colon) of the same molecule?
A: The GI50 was 0.0362 µM.

Q: What about the TGI (COLO 205 colon) of the same molecule?
A: Its TGI is 0.169 µM.

Q: What about the GI50 (CCRF-CEM leukemia) of the same molecule?
A: The GI50 was 0.176 µM.

Q: And the TGI (CCRF-CEM leukemia)?
A: Its TGI is over 68 µM.

Q: What about the GI50 (KM20L2 colon) of the same molecule?
A: Its GI50 is over 100 µM.

Q: What about the TGI (KM20L2 colon) of the same molecule?
A: The TGI was over 100 µM.

Q: And the GI50 (M19-MEL melanoma)?
A: The GI50 was 0.0537 µM.

Q: And the TGI (M19-MEL melanoma)?
A: The TGI was 2.15 µM.

Q: And the GI50 (XF 498 CNS)?
A: The GI50 was over 87.2 µM.

Q: What about the TGI (XF 498 CNS) of the same molecule?
A: The TGI was over 100 µM.

Q: And the GI50 (DMS 273 small cell lung)?
A: Its GI50 is 0.087 µM.

Q: What about the TGI (DMS 273 small cell lung) of the same molecule?
A: Its TGI is over 100 µM.

Q: And the GI50 (M14 melanoma)?
A: The GI50 was over 100 µM.

Q: What about the TGI (M14 melanoma) of the same molecule?
A: The TGI was over 100 µM.

Q: And the GI50 (SF-295 CNS)?
A: The GI50 was 0.127 µM.

Q: What about the TGI (HT29 colon) of the same molecule?
A: Its TGI is over 100 µM.

Q: And the GI50 (DMS 114 small cell lung)?
A: Its GI50 is 0.23 µM.

Q: And the GI50 (786-0 renal)?
A: The GI50 was 1.44 µM.

Q: What about the TGI (786-0 renal) of the same molecule?
A: The TGI was over 100 µM.

Q: What about the GI50 (SK-OV-3 ovarian) of the same molecule?
A: The GI50 was over 100 µM.

Q: And the TGI (SK-OV-3 ovarian)?
A: Its TGI is over 100 µM.

Q: And the GI50 (LOX IMVI melanoma)?
A: The GI50 was over 100 µM.

Q: What about the TGI (LOX IMVI melanoma) of the same molecule?
A: Its TGI is over 100 µM.

Q: What about the TGI (CAKI-1 renal) of the same molecule?
A: The TGI was over 100 µM.

Q: What about the GI50 (SF-539 CNS) of the same molecule?
A: The GI50 was 0.352 µM.

Q: And the TGI (SF-539 CNS)?
A: The TGI was over 100 µM.

Q: And the GI50 (EKVX NSCLC)?
A: Its GI50 is 8.15 µM.

Q: And the TGI (EKVX NSCLC)?
A: Its TGI is over 100 µM.

Q: What about the GI50 (DLD-1 colon) of the same molecule?
A: The GI50 was over 43.5 µM.

Q: And the TGI (DLD-1 colon)?
A: The TGI was over 100 µM.

Q: What about the GI50 (HOP-18 NSCLC) of the same molecule?
A: Its GI50 is over 100 µM.

Q: What about the TGI (HOP-18 NSCLC) of the same molecule?
A: The TGI was over 100 µM.

Q: What about the GI50 (LXFL 529 NSCLC) of the same molecule?
A: Its GI50 is under 0.0272 µM.

Q: And the TGI (LXFL 529 NSCLC)?
A: Its TGI is over 100 µM.

Q: What about the GI50 (SNB-19 CNS) of the same molecule?
A: The GI50 was 31.4 µM.

Q: What about the TGI (SNB-19 CNS) of the same molecule?
A: Its TGI is over 100 µM.

Q: And the TGI (MALME-3M melanoma)?
A: The TGI was over 100 µM.

Q: What about the GI50 (HL-60(TB) leukemia) of the same molecule?
A: The GI50 was 0.104 µM.

Q: And the TGI (HL-60(TB) leukemia)?
A: Its TGI is over 87.8 µM.

Q: And the GI50 (ACHN renal)?
A: The GI50 was 0.0696 µM.

Q: And the TGI (ACHN renal)?
A: Its TGI is over 25.4 µM.

Q: And the GI50 (SR leukemia)?
A: The GI50 was 0.023 µM.

Q: And the TGI (SR leukemia)?
A: The TGI was over 100 µM.

Q: What about the GI50 (RXF 393 renal) of the same molecule?
A: Its GI50 is over 100 µM.

Q: What about the TGI (RXF 393 renal) of the same molecule?
A: Its TGI is over 100 µM.

Q: And the GI50 (RPMI-8226 leukemia)?
A: Its GI50 is 0.147 µM.

Q: What about the TGI (RPMI-8226 leukemia) of the same molecule?
A: Its TGI is over 100 µM.

Q: What about the GI50 (NCI-H226 lung) of the same molecule?
A: The GI50 was 99.4 µM.

Q: What about the TGI (NCI-H226 lung) of the same molecule?
A: The TGI was over 100 µM.

Q: And the GI50 (SN12C renal)?
A: Its GI50 is over 24.5 µM.

Q: What about the TGI (SN12C renal) of the same molecule?
A: The TGI was over 100 µM.

Q: What about the TGI (SK-MEL-5 melanoma) of the same molecule?
A: The TGI was over 100 µM.

Q: What about the GI50 (SW-620 colon) of the same molecule?
A: Its GI50 is 0.187 µM.

Q: What about the TGI (SW-620 colon) of the same molecule?
A: The TGI was over 100 µM.

Q: And the TGI (NCI-H522 lung)?
A: The TGI was over 100 µM.
